The experiment concerns the target T1, haematopoietic prostaglandin D synthase (H-PGDS) (Homo sapiens, UniProt O60760).
T1 construct: Full length human H-PGDS cDNA (Invitrogen Ultimate ORF 10H13026) was amplified by PCR; 6-His (N); TEV protease cleavage site (N); made in house; host or cells: E. coli BL21 (DE3*), vector pET22b+
Kind of experiment: H-PGDS RapidFire high throughput mass spectrometry assay (conversion of PGH2 to PGD2). It counts as biochemical. The note with it: 10 nM H-PGDS, PGH2 formed in situ by COX-2 from arachidonic acid; read-out: Potency Range (mean pIC50) (converted). Summed up:
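RapidFire SPE–MS read-out calculated percent conversion from relative PGD2 and PGF2α (substrate surrogate) levels. Recombinant full-length human H-PGDS (His-tag, E. coli) turned over PGH2, produced in situ at ˜10 μM by human COX-2 (FLAG-tag, Sf9 cells) acting on arachidonic acid.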

Structures are written as SMILES.

T1 sequence (O60760 whole entry): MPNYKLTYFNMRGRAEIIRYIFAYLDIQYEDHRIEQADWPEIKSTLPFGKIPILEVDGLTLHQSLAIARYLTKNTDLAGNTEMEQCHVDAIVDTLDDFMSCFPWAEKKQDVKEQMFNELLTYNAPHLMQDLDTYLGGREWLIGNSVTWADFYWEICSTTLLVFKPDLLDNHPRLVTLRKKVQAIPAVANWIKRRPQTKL

Take `COCCO[C@H]1CC[C@H](NC(=O)[C@H]2C[C@H](Oc3cc(F)cc4scnc34)C2)CC1` [Example 115, (trans)-3-((6-Fluorobenzo[d]thiazol-4-yl)oxy)-N-((trans)-4-(2-methoxyethoxy)cyclohexyl)cyclobutanecarboxamide]: the IC50 was 100 to 1000 nM.
As to `O=C(NC1CCN(c2ncc(F)cn2)CC1)[C@H]1C[C@H](Oc2cc(F)cc3scnc23)C1` [Example 117, (trans)-3-((6-Fluorobenzo[d]thiazol-4-yl)oxy)-N-(1-(5-fluoropyrimidin-2-yl)piperidin-4-yl)cyclobutanecarboxamide], the IC50 was 10 to 79.4 nM.
Turning to `O=C(NC1CCN(c2ncc(F)cn2)CC1)N1CC(Oc2cc(F)cc3scnc23)C1` [Example 118, 3-((6-Fluorobenzo[d]thiazol-4-yl)oxy)-N-(1-(5-fluoropyrimidin-2-yl)piperidin-4-yl)azetidine-1-carboxamide], the IC50 was 10 to 79.4 nM.
Then `O=C(NC1CN(c2ccc(F)cn2)C1)N1CC(Oc2cc(F)cc3scnc23)C1` [Example 119, 3-((6-Fluorobenzo[d]thiazol-4-yl)oxy)-N-(1-(5-fluoropyridin-2-yl)azetidin-3-yl)azetidine-1-carboxamide], with 10 to 79.4 nM.
For the compound `O=C(NC1CN(c2ccc(F)cn2)C1)[C@H]1C[C@H](Oc2cc(F)cc3scnc23)C1` [Example 120, (trans)-3-((6-Fluorobenzo[d]thiazol-4-yl)oxy)-N-(1-(5-fluoropyridin-2-yl)azetidin-3-yl)cyclobutanecarboxamide], the IC50 was 10 to 79.4 nM.
In the case of `Cc1nccc(N2CC(NC(=O)N3CC(Oc4cc(F)cc5scnc45)C3)C2)n1` [Example 122, 3-((6-Fluorobenzo[d]thiazol-4-yl)oxy)-N-(1-(2-methylpyrimidin-4-yl)azetidin-3-yl)azetidine-1-carboxamide], the IC50 is 10 to 79.4 nM.
Then `Cc1nccc(N2CC(NC(=O)[C@H]3C[C@H](Oc4cc(F)cc5scnc45)C3)C2)n1` [Example 123, (trans)-3-((6-Fluorobenzo[d]thiazol-4-yl)oxy)-N-(1-(2-methylpyrimidin-4-yl)azetidin-3-yl)cyclobutanecarboxamide], with 10 to 79.4 nM; and `COCCO[C@H]1CC[C@H](NC(=O)N2CC(Oc3cc(F)cc4scnc34)C2)CC1` [Example 128, 3-((6-Fluorobenzo[d]thiazol-4-yl)oxy)-N-((trans)-4-(2-methoxyethoxy)cyclohexyl)azetidine-1-carboxamide], with 10 to 79.4 nM.
As to `O=C(NC1CN(c2ncccn2)C1)N1CC(Oc2cc(F)cc3scnc23)C1` [Example 129, 3-((6-Fluorobenzo[d]thiazol-4-yl)oxy)-N-(1-(pyrimidin-2-yl)azetidin-3-yl)azetidine-1-carboxamide], the IC50 is 10 to 79.4 nM.
On to `O=C(NC1CN(c2ccnc(Cl)n2)C1)N1CC(Oc2cc(F)cc3scnc23)C1` [Example 130, N-(1-(2-Chloropyrimidin-4-yl)azetidin-3-yl)-3-((6-fluorobenzo[d]thiazol-4-yl)oxy)azetidine-1-carboxamide], for which the IC50 was 10 to 79.4 nM.
For the compound `C[C@]1(O)C[C@@H](NC(=O)[C@H]2C[C@H](Oc3cc(F)cc4scnc34)C2)C1` [Example 131, (trans)-3-((6-Fluorobenzo[d]thiazol-4-yl)oxy)-N-((cis)-3-hydroxy-3-methylcyclobutyl)cyclobutanecarboxamide], the IC50 was 100 to 1000 nM.
Turning to `O=C(NC1CN(c2ccccn2)C1)N1CC(Oc2cc(F)cc3scnc23)C1` [Example 132, 3-((6-Fluorobenzo[d]thiazol-4-yl)oxy)-N-(1-(pyridin-2-yl)azetidin-3-yl)azetidine-1-carboxamide], the IC50 is 10 to 79.4 nM.
Then `O=C(NC1CN(c2ncccn2)C1)[C@H]1C[C@H](Oc2cc(F)cc3scnc23)C1` [Example 133, (trans)-3-((6-Fluorobenzo[d]thiazol-4-yl)oxy)-N-(1-(pyrimidin-2-yl)azetidin-3-yl)cyclobutanecarboxamide], with 10 to 79.4 nM; and `N#Cc1ccnc(N2CC(NC(=O)N3CC(Oc4cc(F)cc5scnc45)C3)C2)c1` [Example 134], with 10 to 79.4 nM.
Then `O=C(NC1CN(c2ncc(F)cn2)C1)N1CC(Oc2cc(F)cc3scnc23)C1` [Example 135, 3-((6-Fluorobenzo[d]thiazol-4-yl)oxy)-N-(1-(5-fluoropyrimidin-2-yl)azetidin-3-yl)azetidine-1-carboxamide], with 10 to 79.4 nM; and `O=C(NC1CN(c2ncc(F)cn2)C1)[C@H]1C[C@H](Oc2cc(F)cc3scnc23)C1` [Example 136, (trans)-3-((6-Fluorobenzo[d]thiazol-4-yl)oxy)-N-(1-(5-fluoropyrimidin-2-yl)azetidin-3-yl)cyclobutanecarboxamide], with 10 to 79.4 nM.
The result for `O=C(NC1CN(c2ccccn2)C1)[C@H]1C[C@H](Oc2cc(F)cc3scnc23)C1` [Example 137, (trans)-3-((6-Fluorobenzo[d]thiazol-4-yl)oxy)-N-(1-(pyridin-2-yl)azetidin-3-yl)cyclobutanecarboxamide] reads 10 to 79.4 nM.
Consider `O=C(Nc1nc(C2CC2)cs1)[C@H]1C[C@H](Oc2cccc3scnc23)C1` [Example 138, (trans)-3-(Benzo[d]thiazol-4-yloxy)-N-(4-cyclopropylthiazol-2-yl)cyclobutanecarboxamide], for which the IC50 is less than 10 nM.
Take `CC(C)(O)[C@H]1CC[C@H](NC(=O)[C@H]2C[C@H](Oc3cc(F)cc4scnc34)C2)CC1` [Example 140, (trans)-3-((6-Fluorobenzo[d]thiazol-4-yl)oxy)-N-((trans)-4-(2-hydroxypropan-2-yl)cyclohexyl)cyclobutanecarboxamide]: the IC50 is 10 to 79.4 nM.
In the case of `COc1ccc(F)cc1O[C@H]1C[C@H](C(=O)NN2CCc3ccccc32)C1` [Example 146, (trans)-3-(5-Fluoro-2-methoxyphenoxy)-N-(indolin-1-yl)cyclobutanecarboxamide], the IC50 is 10 to 79.4 nM.
On to `COc1ccc(F)cc1O[C@H]1C[C@H](C(=O)NC2CN(c3ncc(C#N)s3)C2)C1` [Example 147, (trans)-N-(1-(5-Cyanothiazol-2-yl)azetidin-3-yl)-3-(5-fluoro-2-methoxyphenoxy)cyclobutanecarboxamide], for which the IC50 was 10 to 79.4 nM.
On to `COc1ccc(F)cc1O[C@H]1C[C@H](C(=O)NC2CC3(C2)CN(c2cc(C#N)ccn2)C3)C1` [Example 148, (trans)-N-(2-(4-Cyanopyridin-2-yl)-2-azaspiro[3.3]heptan-6-yl)-3-(5-fluoro-2-methoxyphenoxy)cyclobutanecarboxamide], for which the IC50 was 10 to 79.4 nM.
For the compound `COc1ccc(F)cc1O[C@H]1C[C@H](C(=O)NC2CN(c3cc(C#N)ccn3)C2)C1` [Example 149, (trans)-N-(1-(4-Cyanopyridin-2-yl)azetidin-3-yl)-3-(5-fluoro-2-methoxyphenoxy)cyclobutanecarboxamide], the IC50 was less than 10 nM.
In the case of `COc1ccc(F)cc1O[C@H]1C[C@H](C(=O)N[C@H]2CC[C@H](OC)CC2)C1` [Example 150, (trans)-3-(5-Fluoro-2-methoxyphenoxy)-N-((trans)-4-methoxycyclohexyl)cyclobutanecarboxamide], the IC50 is 10 to 79.4 nM.
Then `COc1ccc(F)cc1O[C@H]1C[C@H](C(=O)N[C@H]2CC[C@H](N3CCOCC3=O)CC2)C1` [Example 151, (trans)-3-(5-Fluoro-2-methoxyphenoxy)-N-((trans)-4-(3-oxomorpholino)cyclohexyl)cyclobutanecarboxamide], with 100 to 1000 nM; and `COc1ccc(F)cc1O[C@H]1C[C@H](C(=O)NC2CCN(c3nnnn3C)CC2)C1` [Example 152, (trans)-3-(5-Fluoro-2-methoxyphenoxy)-N-(1-(1-methyl-1H-tetrazol-5-yl)piperidin-4-yl)cyclobutanecarboxamide], with 10 to 79.4 nM.
As to `COc1ccc(F)cc1O[C@H]1C[C@H](C(=O)NC2CCN(c3nccs3)CC2)C1` [Example 154, (trans)-3-(5-Fluoro-2-methoxyphenoxy)-N-(1-(thiazol-2-yl)piperidin-4-yl)cyclobutanecarboxamide], the IC50 is 10 to 79.4 nM.
`COc1ccc(F)cc1O[C@H]1C[C@H](C(=O)NC2CCN(c3cc(C#N)ccn3)CC2)C1` [Example 155, (trans)-N-(1-(4-Cyanopyridin-2-yl)piperidin-4-yl)-3-(5-fluoro-2-methoxyphenoxy)cyclobutanecarboxamide]: the IC50 was 10 to 79.4 nM.
For `COc1ccc(CN2CCC(NC(=O)[C@H]3C[C@H](Oc4cc(F)ccc4OC)C3)CC2)cc1Cl` [Example 156, (trans)-N-(1-(3-Chloro-4-methoxybenzyl)piperidin-4-yl)-3-(5-fluoro-2-methoxyphenoxy)cyclobutanecarboxamide], the IC50 was 10 to 79.4 nM.
With `COc1ccc(F)cc1O[C@H]1C[C@H](C(=O)NC2CCN(c3ccccn3)CC2)C1` [Example 157, (trans)-3-(5-Fluoro-2-methoxyphenoxy)-N-(1-(pyridin-2-yl)piperidin-4-yl)cyclobutanecarboxamide], the IC50 is 10 to 79.4 nM.
Consider `COc1ccc(F)cc1O[C@H]1C[C@H](C(=O)Nc2nc(C(=O)N(C)C)co2)C1` [Example 158, 2-((trans)-3-(5-Fluoro-2-methoxyphenoxy)cyclobutanecarboxamido)-N,N-dimethyloxazole-4-carboxamide], for which the IC50 was 10 to 79.4 nM.
Regarding `COc1ccc(F)cc1O[C@H]1C[C@H](C(=O)Nc2cccc(C#N)n2)C1` [Example 159, (trans)-N-(6-Cyanopyridin-2-yl)-3-(5-fluoro-2-methoxyphenoxy)cyclobutanecarboxamide], the IC50 was 10 to 79.4 nM.
As to `COc1ccc(F)cc1O[C@H]1C[C@H](NC(=O)[C@H]2CC[C@H](C(C)(C)O)CC2)C1` [Example 162, (trans)-N-((trans)-3-(5-Fluoro-2-methoxyphenoxy)cyclobutyl)-4-(2-hydroxypropan-2-yl)cyclohexanecarboxamide], the IC50 was 100 to 1000 nM.

The record behind these values is patent US11053234B2 (GlaxoSmithKline Intellectual Property Development Limited, priority 2016, dated 2021).
